We go through 2 molecules from paper PMC6694155, “PTPσ inhibitors promote hematopoietic stem cell regeneration” (Nature Communications, 2019).

Structures are written as SMILES. Several values for one entry are separate records, joined by “and”; a condition that tells them apart may be missing. Equal values may be shown once.

Assay [1] concerns C57BL/6 mice. The experiment in a line: Hematopoietic regeneration at day +10 after 750 cGy TBI (PB counts, BM KSL and progenitor cells, CFCs). The class given is in vivo, mouse. On the set-up: Supplementary Figure 4c: BFU-E / Supplementary Figure 5e: CFU-GM / Supplementary Figure 5e: BFU-E / Supplementary Figure 5e: CFU-GEMM: unit not given here. The protocol:
Femurs and tibiae were collected from killed C57BL/6 or Ptprs^−/− mice and flushed with IMDM containing 10% FBS and 1% penicillin–streptomycin for BM cells. PB was collected through sub-mandibular puncture. Cells were filtered through a 40 μM strainer and then treated with ACK lysis buffer (Sigma Aldrich) before antibody staining for flow cytometry. For KSL and CD150^+CD48^−KSL cell analysis, BM cells were stained with allophycocyanin (APC)-and Cy7-conjugated anti-mouse Sca1 (BD Biosciences, #560654, 1:100), phycoerythrin (PE)-conjugated anti-mouse c-kit (BD Biosciences, #553355, 1:100), V450 lineage cocktail (BD Biosciences, 561301, 1:10), Alexa Fluor 488-conjugated anti-mouse CD48 (BioLegend, #103414, 1:100), and Alexa Fluor 647-conjugated anti-mouse CD150 (Biolegend, #115918, 1:100) antibodies. For MEP, CMP, GMP, and CLP cell analysis, BM cells were stained with APC-Cy7-conjugated anti-mouse Sca1 (BD Biosciences, #560654, 1:100), PE-conjugated anti-mouse ckit (BD Biosciences, #553355, 1:100), V450 lineage cocktail (BD Biosciences, #561301; 1:10), Alexa Fluor 488-conjugated anti-mouse CD127 (BD Biosciences, #561533, 1:100), Alexa Fluor 647-conjugated anti-mouse CD34 (BD Biosciences, #560230; 1:100), and BV605-conjugated anti-mouse CD16/32 antibodies (BD Biosciences, #563006; 1:100). For donor engraftment analysis in transplanted mice, PB or BM cells were stained with BV605-conjugated anti-mouse CD45.2 (BioLegend, #109841, 1:100), fluorescein isothiocyanate (FITC)-conjugated anti-mouse CD45.1 (BD Biosciences, #553775, 1:100), PE-conjugated anti-mouse Mac-1 (BD Biosciences, #557397, 1:100) and anti-mouse Gr1 (BD Biosciences, #553128, 1:100), V450-conjugated anti-mouse CD3 (BD Biosciences, #561389, 1:100), and APC-Cy7-conjugated anti-mouse B220 (BD Biosciences, 552094, 1:100) antibodies.
(§1) For survival studies, 10-week-old female C57BL/6 mice were irradiated with 750 cGy TBI, which is lethal for ~50% of C57BL/6 mice by day + 30 (LD50/30), using a Shepherd Cesium-137 irradiator. Twenty four hours post irradiation, mice were administered daily subcutaneous injections of 5 mg/kg DJ001 or DJ009, or vehicle in a volume of 100 μL for 10 days. DJ001 or DJ009 injections were prepared in PBS, 0.5% Tween 80, and 10% DMSO. Corresponding vehicle injections contained PBS, 10% DMSO, and 0.5% Tween 80. PB complete blood counts were measured using a Hemavet 950 instrument (Drew Scientific) at day + 10 post irradiation. For hematopoietic analysis, BM cells were collected at day + 10 post irradiation. To study whether DJ001 increased survival rates through activation of RAC signaling, the RAC inhibitor, EHT1864 (Selleckchem), was dissolved in PBS and administered intraperitoneally, 40 mg/kg every other day, to 750 cGy-irradiated mice until day + 10.
CFC assays (colony-forming unit-granulocyte monocyte), burst-forming unit-erythroid, and CFU-GEMM were performed using MethoCult GF M3434 (Stemcell Technologies)[6]. For all in vitro assays, BM CD34^−KSL cells, KSL cells, and Lin^− cells were cultured in TSF media (IMDM, 10% FBS, 1% pen-strep, 20 ng/mL recombinant mouse TPO, 125 ng/mL recombinant mouse SCF, 50 ng/mL recombinant mouse Flt3 ligand). Recombinant mouse SCF, Flt3 ligand, and TPO were purchased from R&D Systems. For competitive repopulation assays, BM cells were isolated from donor 10–12-week-old female CD45.2^+ mice. Recipient 10-week-old female CD45.1^+ B6.SJL mice were irradiated with 950 cGy TBI using a Cs137 irradiator and donor BM cells were administered via tail vein injection along with a competing dose of 1 × 10^5 non-irradiated host BM cells. Multilineage donor hematopoietic cell engraftment was measured in the PB by flow cytometry.

Assay [2] deals with C57BL/6 mice. Put plainly: Survival study after 750 cGy TBI. The class given is in vivo, mouse. The procedure:
as §1

Where [3] appears, read: day +10 after 750 cGy TBI, individual mice.
Where [4] appears, read: day +10 after 750 cGy TBI, replicates.
The mark [5] stands for this setting: day +10 after 750 cGy, 5 mg/kg s.c. daily.
[6] abbreviates: day +10 after 750 cGy, 5 mg/kg s.c. daily, 5 mg/kg.
[7] abbreviates: 750 cGy TBI, DJ001 daily day +1 to +10, through day +40.
[8] abbreviates: after 750 cGy TBI, individual mice.

In the case of `O=C(/C=C\Nc1cccc([N+](=O)[O-])c1)c1ccccc1` [DJ001, (Z)-3-((3-nitrophenyl)amino)-1-phenylprop-2-en-1-one], the “recovery of BM KSL cells, ckit+sca-1−lin− myeloid progenitors and CFCs following TBI” value in assay [1] (750 cGy, 5 mg/kg s.c. daily day +1 to +10) is “accelerated the recovery”. Moreover, in assay [1] (day +10 after 750 cGy), the “percentages of BM MEPs, CMPs, GMPs, or PB myeloid, B-cell or T-cell populations” value is “did not alter the percentages” and the “percentages of BM common lymphoid progenitors (CLPs)” value is “modest increase”. Also, in assay [1] (setting [3]), the “Supplementary Figure 4d (center left panel): BM progenitor cells” value is 0.05534 and 0.6345 and 0.3797 and 0.1366 and 0.1346 and 0.08271 and 0.1205 and 0.1142 and 0.1459 and 0.6791; the “Supplementary Figure 4d (center right panel): BM progenitor cells” value is 0.1315 and 0.5274 and 0.7758 and 0.2631 and 0.4325 and 0.1366 and 0.1603 and 0.4187 and 0.3345 and 1.367; the “Supplementary Figure 4d (left panel): BM progenitor cells” value is 0.1083 and 0.8819 and 0.5478 and 0.2535 and 0.1578 (2×) and 0.2622 and 0.4013 and 0.1995 and 0.6663; the “Supplementary Figure 4d (right panel): BM progenitor cells” value is 0.07453 and 0.07514 and 0.1093 and 0.1068 and 0.06267 and 0.05116 and 0.04956 and 0.2046 and 0.1087. In assay [1] (setting [4]), the “Supplementary Figure 4c: BFU-E” value is 0 (2×) and 2 and 1 (3×); the “Supplementary Figure 4c: CFU-GEMM” value is 0 and 2 and 1 (2×) and 3 (2×); the “Supplementary Figure 4c: CFU-GM” value is 5 (3×) and 7 and 6 and 10. Besides, in assay [1] (setting [5]), the “PB lymphocytes compared with vehicle” value is reported as “more than twofold increased”, the “PB neutrophils compared with vehicle” value is reported as “more than twofold increased” and the “PB white blood cells compared with vehicle” value was “more than twofold increased”. Moreover, in assay [1] (setting [6]), the “PB WBCs per mouse (Figure 2c left panel)” value was 0.86 and 0.62 and 0.68 and 0.76 and 0.34 and 0.7 and 0.52 and 0.64; the “PB lymphocytes (LYMPH) per mouse (Figure 2c right panel)” value is 0.38 and 0.39 and 0.4 and 0.45 and 0.24 and 0.36 and 0.33 and 0.42 and 0.37; the “PB neutrophils (NEU) per mouse (Figure 2c center panel)” value was 0.27 and 0.16 and 0.18 and 0.17 and 0.06 and 0.2 and 0.12. For the same molecule, in assay [1] (day +10 post 750 cGy), the “numbers of BM KSL cells per mouse (Figure 2e center left panel)” value was 15.7 and 9.66 and 15 and 10.6 and 9.42 and 14.8 and 11.8 and 11.5 and 10.7; the “numbers of BM c-kit+sca-1− cells per mouse (Figure 2e right panel)” value was 1.33 and 6.87 and 4.4 and 4.05 and 3.27 and 5.18 and 7.29 and 2.89 and 7.28; the “percentages of BM KSL cells per mouse (Figure 2e left panel)” value is 0.749% and 0.807% and 1.138% and 0.766% and 0.608% and 0.862% and 0.365% and 1.197% and 0.783%; the “percentages of BM c-kit+sca-1− cells per mouse (Figure 2e center right panel)” value was 1.717% and 4.73% and 3.337% and 2.916% and 2.11% and 3.013% and 2.25% and 3.004% and 5.312%. Moreover, in assay [1] (irradiated mice, day +10), the “increase of percentages and numbers of BM KSL stem/progenitor cells compared to irradiated control mice” value stood at 2 fold. For the same molecule, in assay [2] (setting [7]), the percent survival was 93%; the “survival, mice alive of total (Fig. 2f)” value is 27/29 and 27 of 29. In assay [2] (750 cGy, 10-day treatment, EHT1864 40 mg/kg i.p. every other day), the “survival, mice alive of total (Fig. 3f)” value is 11/15. Further, the “Figure 3f: survival event per mouse (1 = event, 0 = censored)” value (from here on “Figure 3f: survival event per mouse”) in assay [2] (Days Post-irradiation 14) was found to be 1. Besides, the “Figure 3f: survival event per mouse” value in assay [2] (Days Post-irradiation 17) is 1. Further, in assay [2] (Days Post-irradiation 18), the “Figure 3f: survival event per mouse” value is 1 and the “survival source data, event code per mouse” value is recorded as 1. Moreover, the “Figure 3f: survival event per mouse” value in assay [2] (Days Post-irradiation 20) is recorded as 1. The “Figure 3f: survival event per mouse” value in assay [2] (Days Post-irradiation 30) was determined as 0. For the same molecule, the “survival source data, event code per mouse” value in assay [2] (Days Post-irradiation 40) is on record as 0.
With `O=C(/C=C\Nc1cc(F)cc(F)c1)c1ccccc1` [DJ009, (Z)-3-((3,5-difluorophenyl)amino)-1-phenylprop-2-en-1-one], in assay [1] (750 cGy TBI, 5 mg/kg DJ009 daily for 10 days), the “PB WBCs, neutrophils and lymphocytes, BM KSL cells, and CFCs” value is reported as “significant increase”. Further, in assay [1] (setting [8]), the “Supplementary Figure 5c (center panel): PB counts” value was 0.08 and 0.19 and 0.29 and 0.1 and 0.39 and 0.13 and 0.2; the “Supplementary Figure 5c (left panel): PB counts” value is 1.4 and 0.72 and 1.76 and 0.4 and 1.62 and 0.52 and 0.94; the “Supplementary Figure 5c (right panel): PB counts” value is 1.27 and 0.4 and 1.32 and 0.26 and 0.96 and 0.29 and 0.63; the “Supplementary Figure 5d (center panel): BM cells” value is 4.83 and 5.26 and 6.06 and 14.68 and 8.28 and 9.38 and 7.6. In addition, in assay [1] (setting [8]), the “Supplementary Figure 5d (left panel): BM cells” value is 1.079 and 0.621 and 0.841 and 0.709 and 1.581 and 1.301 and 0.94. Besides, in assay [1] (after 750 cGy TBI, replicates), the “Supplementary Figure 5e: BFU-E” value was 0 (6×) and 1 (2×) and 2; the “Supplementary Figure 5e: CFU-GEMM” value was 1 and 0 (3×) and 3 and 2 (3×) and 4; the “Supplementary Figure 5e: CFU-GM” value is 5 and 4 and 2 and 6 and 8 and 7 and 19 and 18 and 15. In addition, in assay [2] (750 cGy TBI, 5 mg/kg daily for 10 days), the “survival of irradiated C57BL/6 mice (in words)” value is “significantly increased survival”. For the same molecule, the “survival, mice alive of total (Supplementary Fig. 5f)” value in assay [2] (750 cGy, 5 mg/kg DJ009 daily for 10 d) is reported as 24/24. Also, in assay [2] (Days post-radiation 30), the “Supplementary Figure 5f: survival event per mouse (1 = event, 0 = censored)” value was found to be 0.
